PubChem BioAssay AID2060609 (Molecular Pharmacology Branch, DTP, NCI, 2025)
Where “and” joins values, the source holds several entries; their conditions need not be identical. Identical values can stand only once.

System: 855422-203-R-J1-PDC complex spheroids, viability
Experiment: Anticancer human tumor 855422-203-R-J1-PDC patient-derived bladder carcinoma cell line growth inhibition [CLK]
Details: for viability, T/C: stronger effect = lower value; active = viability on the fitted dose curve at most 10% of control; inactive = the rest
Procedure, shortened: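 Patient-derived tumor cells grown as complex spheroids with HUVEC endothelial cells and mesenchymal stem cells, treated with drug combinations. Concentrations descend in half-log steps from near clinical Cmax, or from 10 microM if Cmax unknown.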

[1] = curve of first compound, second compound 0.0316 µM
[2] = curve of first compound, second compound 0.1 µM
[3] = curve of first compound, second compound 0.316 µM
[4] = curve of first compound, second compound 1 µM
[5] = curve of first compound, second compound 3.16 µM
[6] = curve of first compound, second compound 10 µM
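Also: spheroids exposed to drugs for seven days before readout.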
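For viability, T/C in this document: 100% = DMSO vehicle control wells.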

NC(=O)C(=Cn1cnc(-c2cc(C(F)(F)F)cc(C(F)(F)F)c2)n1)c1cncnc1 + CNC(=O)c1ccc(Nc2nc(OC3CCCC3)c3c(-c4ccc5nc(C)oc5c4)c[nH]c3n2)c(OC)c1
69.3 nM: IC50 [1]
active: viability, T/C (second compound 0.0316 µM, first compound 0.3 µM) 10.1% | viability, T/C (second compound 0.0316 µM, first compound 0.949 µM) 9.34% | viability, T/C (second compound 0.0316 µM, first compound 3 µM) 3.87% | viability, T/C (second compound 0.1 µM, first compound 0.3 µM) 6.75% | viability, T/C (second compound 0.1 µM, first compound 0.949 µM) 5.9% | viability, T/C (second compound 0.1 µM, first compound 3 µM) 2.36% | viability, T/C (second compound 0.316 µM, first compound 0.3 µM) 6.63% | viability, T/C (second compound 0.316 µM, first compound 0.949 µM) 3.98% | viability, T/C (second compound 0.316 µM, first compound 3 µM) 3% | viability, T/C (second compound 1 µM, first compound 0.0949 µM) 9.1% | viability, T/C (second compound 1 µM, first compound 0.3 µM) 3.59% | viability, T/C (second compound 1 µM, first compound 0.949 µM) 1.47% | viability, T/C (second compound 1 µM, first compound 3 µM) 0.79% | viability, T/C (second compound 3.16 µM, first compound 0.0949 µM) 6.09% | viability, T/C (second compound 3.16 µM, first compound 0.3 µM) 2.12% | viability, T/C (second compound 3.16 µM, first compound 0.949 µM) 1.2% | viability, T/C (second compound 3.16 µM, first compound 3 µM) 1.63% | viability, T/C (second compound 10 µM, first compound 0.0949 µM) 7.07% | viability, T/C (second compound 10 µM, first compound 0.3 µM) 1.75% | viability, T/C (second compound 10 µM, first compound 0.949 µM) 1.33% | viability, T/C (second compound 10 µM, first compound 3 µM) 0.47%
< 9.49 nM: IC50 [2] | IC50 [3] | IC50 [4] | IC50 [5] | IC50 [6]
inactive: viability, T/C (second compound 0.0316 µM, first compound 0.00949 µM) 123% | viability, T/C (second compound 0.0316 µM, first compound 0.03 µM) 150% | viability, T/C (second compound 0.0316 µM, first compound 0.0949 µM) 17.6% | viability, T/C (second compound 0.1 µM, first compound 0.00949 µM) 44.8% | viability, T/C (second compound 0.1 µM, first compound 0.03 µM) 50.1% | viability, T/C (second compound 0.1 µM, first compound 0.0949 µM) 12.1% | viability, T/C (second compound 0.316 µM, first compound 0.00949 µM) 20.1% | viability, T/C (second compound 0.316 µM, first compound 0.03 µM) 13.7% | viability, T/C (second compound 0.316 µM, first compound 0.0949 µM) 12.3% | viability, T/C (second compound 1 µM, first compound 0.00949 µM) 18.6% | viability, T/C (second compound 1 µM, first compound 0.03 µM) 10.4% | viability, T/C (second compound 3.16 µM, first compound 0.00949 µM) 14.3% | viability, T/C (second compound 3.16 µM, first compound 0.03 µM) 14% | viability, T/C (second compound 10 µM, first compound 0.00949 µM) 14.7% | viability, T/C (second compound 10 µM, first compound 0.03 µM) 13.1%

COc1c(OCCCN2CCOCC2)ccc2c3n(c(=NC(=O)c4cnc(N)nc4)nc12)CCN3
14.1 nM and 12.1 nM: IC50 (curve of compound)
inactive: viability, T/C (compound 0.00316 µM) 86% and 84.6% | viability, T/C (compound 0.01 µM) 55.7% and 52.6% | viability, T/C (compound 0.0316 µM) 35.4% and 31.9% | viability, T/C (compound 0.1 µM) 12.5% and 11%
active: viability, T/C (compound 0.316 µM) 4.09% and 3.82% | viability, T/C (compound 1 µM) 2.57% and 1.98%

COc1c(OCCCN2CCOCC2)ccc2c3n(c(=NC(=O)c4cnc(N)nc4)nc12)CCN3 + CNC(=O)c1ccc(Nc2nc(OC3CCCC3)c3c(-c4ccc5nc(C)oc5c4)c[nH]c3n2)c(OC)c1
6.2 nM: IC50 [2]
14.2 nM: IC50 [1]
< 3.16 nM: IC50 [3] | IC50 [4] | IC50 [5] | IC50 [6]
inactive: viability, T/C (second compound 0.0316 µM, first compound 0.00316 µM) 84.2% | viability, T/C (second compound 0.0316 µM, first compound 0.01 µM) 58.8% | viability, T/C (second compound 0.0316 µM, first compound 0.0316 µM) 29.8% | viability, T/C (second compound 0.0316 µM, first compound 0.1 µM) 10.1% | viability, T/C (second compound 0.1 µM, first compound 0.00316 µM) 52% | viability, T/C (second compound 0.1 µM, first compound 0.01 µM) 49.5% | viability, T/C (second compound 0.1 µM, first compound 0.0316 µM) 25.3% | viability, T/C (second compound 0.316 µM, first compound 0.00316 µM) 17.3% | viability, T/C (second compound 0.316 µM, first compound 0.01 µM) 18.5% | viability, T/C (second compound 0.316 µM, first compound 0.0316 µM) 8.61% | viability, T/C (second compound 1 µM, first compound 0.00316 µM) 19.4% | viability, T/C (second compound 1 µM, first compound 0.01 µM) 16.5% | viability, T/C (second compound 3.16 µM, first compound 0.00316 µM) 18.8% | viability, T/C (second compound 3.16 µM, first compound 0.01 µM) 14.2% | viability, T/C (second compound 3.16 µM, first compound 0.0316 µM) 10.1% | viability, T/C (second compound 10 µM, first compound 0.00316 µM) 16.3% | viability, T/C (second compound 10 µM, first compound 0.01 µM) 11.2%
active: viability, T/C (second compound 0.0316 µM, first compound 0.316 µM) 4.15% | viability, T/C (second compound 0.0316 µM, first compound 1 µM) 1.68% | viability, T/C (second compound 0.1 µM, first compound 0.1 µM) 9.48% | viability, T/C (second compound 0.1 µM, first compound 0.316 µM) 3.91% | viability, T/C (second compound 0.1 µM, first compound 1 µM) 2.07% | viability, T/C (second compound 0.316 µM, first compound 0.1 µM) 7.71% | viability, T/C (second compound 0.316 µM, first compound 0.316 µM) 3.19% | viability, T/C (second compound 0.316 µM, first compound 1 µM) 1.46% | viability, T/C (second compound 1 µM, first compound 0.0316 µM) 7.5% | viability, T/C (second compound 1 µM, first compound 0.1 µM) 3.51% | viability, T/C (second compound 1 µM, first compound 0.316 µM) 7.67% | viability, T/C (second compound 1 µM, first compound 1 µM) 1.54% | viability, T/C (second compound 3.16 µM, first compound 0.1 µM) 7.42% | viability, T/C (second compound 3.16 µM, first compound 0.316 µM) 2.07% | viability, T/C (second compound 3.16 µM, first compound 1 µM) 1.38% | viability, T/C (second compound 10 µM, first compound 0.0316 µM) 6.12% | viability, T/C (second compound 10 µM, first compound 0.1 µM) 4.26% | viability, T/C (second compound 10 µM, first compound 0.316 µM) 3.27% | viability, T/C (second compound 10 µM, first compound 1 µM) 1.62%
